Where a name gives a salt, the structure may show the parent alone. Read-outs that look alike come from different tables or passages of the source.
What was measured:
Experiment in all cases: MIC, dilution in liquid medium
Format in all cases: cell-based
[1] = tested on: Proteus mirabilis (indol-) A 235
Description: (§1) The method used was a dilution of a liquid medium where a series of tubes received the same quantity of a sterile nutritive media and increasing doses of the test compounds were placed therein. Then each tube was seeded with a bacterial strain and was incubated for 24 to 48 hours at 37° C. in an oven. The increasing inhibition was determined by transillulumination to determine the minimum inhibiting concentration (MIC in μg/ml) and the results are reported in the following Tables.

[2] = tested on: Staphylococcus aureus ATCC 6 538 Pen Sensitive
Description: as §1

Providencia Du 48 = tested on: Providencia Du 48
Description: as §1

[3] = tested on: Klebsiella pneumoniae Exp. 52 145
Description: as §1

[4] = tested on: Salmonella typhimurium 420; settings: Salmonella enterica
Description: as §1

[5] = tested on: Staphylococcus aureus exp.n°54 146
Description: as §1

[6] = tested on: Escherichia Coli Resistant Tetracycline ATCC 11 303
Description: as §1

[7] = tested on: Serratia Resistant Gentamycine 2 532
Description: as §1

[8] = tested on: Escherichia Coli sensitive Tetracycline ATCC 9 637
Description: as §1

[9] = tested on: Escherichia Coli Exp. TO26 B6
Description: as §1

[10] = tested on: Escherichia Coli Resistant Gentamycine, Tobramycine R 55 123 D
Description: as §1

Enterobacter cloacae 681 = tested on: Enterobacter cloacae 681
Description: as §1

[11] = tested on: Bacillus subtilis ATCC 6 633
Description: as §1

[12] = tested on: Staphylococcus aureus UC 1 128 Pen-resistant
Description: as §1

[13] = tested on: Klebsiella pneumoniae 2 536 Resistant Gentamycine
Description: as §1

[14] = tested on: Streptococcus pyogenes A 561
Description: as §1

[15] = tested on: Pseudomonas 3935 Exp.Sensible Gentamycine
Description: as §1

[16] = Enterobacter cloacae, 681, 24 h
[17] = Enterobacter cloacae, 681, 48 h

## Cn1nnnc1SCC1=C(C(=O)O)N2C(=O)C(NC(=O)/C(=N\OCCSC(=N)N)c3csc(N)n3)C2SC1 (stereo not drawn) [Example 4, Internal salt of the syn isomer of 3-[(1-methyl-1H-tetrazol-5-yl)-thiomethyl]-7-[2-(2-amino-4-thiazolyl)-2-(2-aminoiminomethylthioethoxyimino)-acetamido]-ceph-3-eme-4-carboxylic acid]
[1]; 24 h
  MIC: 0.2 µg/mL
[1]; 48 h
  MIC: 0.5 µg/mL
[2]; ATCC6, 24 h
  MIC: 1 µg/mL
[2]; ATCC6, 48 h
  MIC: 2 µg/mL
Providencia Du 48; DU48, 24 h
  MIC: 5 µg/mL
Providencia Du 48; DU48, 48 h, read-out: MIC
  MIC: 10 µg/mL
[3]; EXP.52145, 24 h
  MIC: 1 µg/mL
[3]; EXP.52145, 48 h
  MIC: 1 µg/mL
[4]; 24 h
  MIC: 2 µg/mL
[4]; 48 h
  MIC: 2 µg/mL
[5]; 24 h
  MIC: 2 µg/mL
[5]; 48 h
  MIC: 2 µg/mL
[6]; ATCC11, 24 h
  MIC: 0.2 µg/mL
[6]; ATCC11, 48 h
  MIC: 0.2 µg/mL
[7]; 24 h
  MIC: 1 µg/mL
[7]; 48 h
  MIC: 1 µg/mL
[8]; ATCC9, 24 h
  MIC: 2 µg/mL
[8]; ATCC9, 48 h
  MIC: 2 µg/mL
[9]; 24 h
  MIC: 1 µg/mL
[9]; 48 h
  MIC: 1 µg/mL
[10]; 24 h
  MIC: 1 µg/mL
[10]; 48 h
  MIC: 1 µg/mL
Enterobacter cloacae 681; [16]
  MIC: 3 µg/mL
Enterobacter cloacae 681; [17]
  MIC: 3 µg/mL
[11]; ATCC6, 24 h, read-out: MIC
  MIC: 0.5 µg/mL
[11]; ATCC6, 48 h
  MIC: 2 µg/mL
[12]; UC1, 24 h
  MIC: 2 µg/mL
[12]; UC1, 48 h
  MIC: 2 µg/mL
[13]; 24 h
  MIC: 5 µg/mL
[13]; 48 h
  MIC: 5 µg/mL
[14]; A561, 24 h
  MIC: 0.05 µg/mL
[14]; A561, 48 h
  MIC: 0.05 µg/mL
[15]; 24 h
  MIC: 10 µg/mL
[15]; 48 h
  MIC: 20 µg/mL

## [N-]=[N+]=NCC1=C(C(=O)O)N2C(=O)C(NC(=O)/C(=N\OCCSC(=N)N)c3csc(N)n3)C2SC1 (stereo not drawn) [Example 5, Internal salt of syn isomer of 3-azidomethyl-7-[2-(2-amino-4-thiazolyl)-2-(2-aminoiminomethylthioethoxyimino)-acetamido]-ceph-3-eme-4-carboxylic acid]
[1]; 24 h
  MIC: 0.2 µg/mL
[1]; 48 h
  MIC: 0.2 µg/mL
[2]; ATCC6, 24 h, read-out: MIC
  MIC: 1 µg/mL
[2]; ATCC6, 48 h, read-out: MIC
  MIC: 1 µg/mL
Providencia Du 48; DU48, 24 h, read-out: MIC
  MIC: 10 µg/mL
Providencia Du 48; DU48, 48 h, read-out: MIC
  MIC: 10 µg/mL
[3]; EXP.52145, 24 h, read-out: MIC
  MIC: 1 µg/mL
[3]; EXP.52145, 48 h, read-out: MIC
  MIC: 1 µg/mL
[4]; 24 h, read-out: MIC
  MIC: 1 µg/mL
[4]; 48 h, read-out: MIC
  MIC: 1 µg/mL
[5]; 24 h, read-out: MIC
  MIC: 1 µg/mL
[5]; 48 h, read-out: MIC
  MIC: 2 µg/mL
[6]; ATCC11, 24 h
  MIC: 0.2 µg/mL
[6]; ATCC11, 48 h
  MIC: 0.2 µg/mL
[7]; 24 h, read-out: MIC
  MIC: 1 µg/mL
[7]; 48 h, read-out: MIC
  MIC: 1 µg/mL
[8]; ATCC9, 24 h, read-out: MIC
  MIC: 2 µg/mL
[8]; ATCC9, 48 h, read-out: MIC
  MIC: 2 µg/mL
[9]; 24 h
  MIC: 0.5 µg/mL
[9]; 48 h
  MIC: 0.5 µg/mL
[10]; 24 h, read-out: MIC
  MIC: 1 µg/mL
[10]; 48 h, read-out: MIC
  MIC: 1 µg/mL
Enterobacter cloacae 681; [16]
  MIC: 3 µg/mL
Enterobacter cloacae 681; [17]
  MIC: 3 µg/mL
[11]; ATCC6, 24 h, read-out: MIC
  MIC: 2 µg/mL
[11]; ATCC6, 48 h
  MIC: 3 µg/mL
[12]; UC1, 24 h, read-out: MIC
  MIC: 1 µg/mL
[12]; UC1, 48 h, read-out: MIC
  MIC: 2 µg/mL
[13]; 24 h, read-out: MIC
  MIC: 2 µg/mL
[13]; 48 h
  MIC: 3 µg/mL
[14]; A561, 24 h
  MIC: < 0.02 µg/mL
[14]; A561, 48 h
  MIC: 0.05 µg/mL
